Results taken from the supplement of paper PMC5908809.

Columns and labels:
[1] = system: normal NK cells expanded with K562-aAPC; assay: percent inhibition of viability; higher = more inhibition; conditions: 72 h, IL-2 2.5 ng/mL
Procedure: (§1)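 Drug sensitivity and resistance testing on K562-aAPC-expanded normal NK cells: 5 concentrations (10-fold steps over a 10,000-fold range), 72 h at 37 °C, viability by CellTiter-Glo normalised to DMSO and benzethonium chloride controls; DSS from the fitted curve.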

DERL-7 (IL-2 2.5 ng/mL) [2] = assay: as above; conditions: 72 h
IMC-1 (IL-2 20 ng/mL) [3] = assay: as above; conditions: 72 h
KAI3 (IL-2 2.5 ng/mL) [4] = assay: as above; conditions: 72 h
KHYG-1 (IL-2 2.5 ng/mL) [5] = assay: as above; conditions: 72 h
NK-92 (IL-2 2.5 ng/mL) [6] = assay: as above; conditions: 72 h
NK-YS (IL-2 2.5 ng/mL) [7] = assay: as above; conditions: 72 h
NKL (IL-2 2.5 ng/mL) [8] = assay: as above; conditions: 72 h
SNK-6 (IL-2 2.5 ng/mL) [9] = assay: as above; conditions: 72 h
YT (IL-2 2.5 ng/mL) [10] = assay: as above; conditions: 72 h
[11] = system: normal primary NK cells, pool 1 (3 donors) (IL-2 2.5 ng/mL); assay: as above; conditions: 72 h
[12] = system: normal primary NK cells, pool 1 (3 donors), resting (IL-2 0 ng/mL); assay: as above; conditions: 72 h
[13] = system: normal primary NK cells, pool 2 (3 donors) (IL-2 2.5 ng/mL); assay: as above; conditions: 72 h
[14] = system: normal primary NK cells, pool 3 (3 donors) (IL-2 2.5 ng/mL); assay: as above; conditions: 72 h
[15] = system: normal NK cells expanded with K562-aAPC; assay: drug sensitivity score (DSS) (DSS units); higher = more sensitive; extreme values may be limits of the assay; conditions: 72 h; IL-2 2.5 ng/mL
Procedure: as §1

DERL-7 (IL-2 2.5 ng/mL) [16] = assay: as above; conditions: 72 h
IMC-1 (IL-2 20 ng/mL) [17] = assay: as above; conditions: 72 h
KAI3 (IL-2 2.5 ng/mL) [18] = assay: as above; conditions: 72 h
KHYG-1 (IL-2 2.5 ng/mL) [19] = assay: as above; conditions: 72 h
NK-92 (IL-2 2.5 ng/mL) [20] = assay: as above; conditions: 72 h
NK-YS (IL-2 2.5 ng/mL) [21] = assay: as above; conditions: 72 h
NKL (IL-2 2.5 ng/mL) [22] = assay: as above; conditions: 72 h
SNK-6 (IL-2 2.5 ng/mL) [23] = assay: as above; conditions: 72 h
YT (IL-2 2.5 ng/mL) [24] = assay: as above; conditions: 72 h
[25] = system: normal primary NK cells, pool 1 (3 donors) (IL-2 2.5 ng/mL); assay: as above; conditions: 72 h
[26] = system: normal primary NK cells, pool 1 (3 donors), resting (IL-2 0 ng/mL); assay: as above; conditions: 72 h
[27] = system: normal primary NK cells, pool 2 (3 donors) (IL-2 2.5 ng/mL); assay: as above; conditions: 72 h
[28] = system: normal primary NK cells, pool 3 (3 donors) (IL-2 2.5 ng/mL); assay: as above; conditions: 72 h

CN1CCc2c(c3ccccc3n2Cc2ccc(C(=O)NO)cc2)C1 [Tubastatin A] (max concentration tested 10000 nM)
percent inhibition of viability [%]
Conditions | 1 nM | 10 nM | 100 nM | 1000 nM | 10000 nM
DERL-7 (IL-2 2.5 ng/mL) [2] | -3.55 | 1.06 | -2.9 | -2.52 | 60
IMC-1 (IL-2 20 ng/mL) [3] | -3.32 | -4.63 | -0.4 | -1.55 | 84.5
KAI3 (IL-2 2.5 ng/mL) [4] | 2.16 | -0.84 | 7.18 | 38.8 | 90.5
KHYG-1 (IL-2 2.5 ng/mL) [5] | -2.63 | -7.38 | -2.24 | 5.2 | 68.8
NK-92 (IL-2 2.5 ng/mL) [6] | -3.57 | -14.2 | -5.66 | 22.2 | 92.4
NK-YS (IL-2 2.5 ng/mL) [7] | -4.34 | -5.38 | -3.76 | 9.99 | 54.1
NKL (IL-2 2.5 ng/mL) [8] | -6.98 | -8.33 | 6.76 | 35.4 | 74.1
SNK-6 (IL-2 2.5 ng/mL) [9] | 8.54 | 0.91 | 4.89 | 18.5 | 57
YT (IL-2 2.5 ng/mL) [10] | -0.87 | -2.95 | -0.96 | 6.63 | 72.9
[1] | -5.45 | -1.84 | -1.29 | 9.86 | 53.5
[11] | 7.05 | 12.2 | 16.9 | 13 | 63.5
[12] | 8.81 | 19.6 | 12 | 26.2 | 81.9
[13] | -2.86 | 0.66 | 3.2 | 7.48 | 46.4
[14] | -0.16 | 11.4 | -0.85 | -0.8 | 29.6

Conditions | drug sensitivity score
DERL-7 (IL-2 2.5 ng/mL) [16] | 3.03
IMC-1 (IL-2 20 ng/mL) [17] | 4.57
KAI3 (IL-2 2.5 ng/mL) [18] | 9.51
KHYG-1 (IL-2 2.5 ng/mL) [19] | 4.58
NK-92 (IL-2 2.5 ng/mL) [20] | 8.57
NK-YS (IL-2 2.5 ng/mL) [21] | 4.55
NKL (IL-2 2.5 ng/mL) [22] | 8.2
SNK-6 (IL-2 2.5 ng/mL) [23] | 5.42
YT (IL-2 2.5 ng/mL) [24] | 5.09
[15] | 4.5
[25] | 5.39
[26] | 7.58
[27] | 3.66
[28] | 1.21

O=C(c1cccc(Cl)c1F)N1CCN(Cc2cccc(Nc3nccs3)n2)CC1 [MK-8745] (max concentration tested 2500 nM)
percent inhibition of viability [%]
Conditions | 0.25 nM | 2.5 nM | 25 nM | 250 nM | 2500 nM
DERL-7 (IL-2 2.5 ng/mL) [2] | -8.45 | 2.62 | 1.62 | 22 | 83.1
IMC-1 (IL-2 20 ng/mL) [3] | -1.25 | -4.64 | -0.96 | 2.91 | 66.8
KAI3 (IL-2 2.5 ng/mL) [4] | -2.71 | 2.86 | -1.01 | 18.3 | 36.5
KHYG-1 (IL-2 2.5 ng/mL) [5] | -1.65 | -5.36 | -0.69 | 6.09 | 44.4
NK-92 (IL-2 2.5 ng/mL) [6] | -12.1 | -7.81 | -0.68 | 8.86 | 26.2
NK-YS (IL-2 2.5 ng/mL) [7] | -0.85 | -3.89 | -0.06 | 38.4 | 61.3
NKL (IL-2 2.5 ng/mL) [8] | -14.5 | -12.8 | -23.9 | 17.2 | 40.3
SNK-6 (IL-2 2.5 ng/mL) [9] | -0.59 | 0.91 | -4.8 | 47.9 | 76.6
YT (IL-2 2.5 ng/mL) [10] | -0.09 | -1.63 | -2.07 | 7.04 | 49.4
[1] | -2.18 | -4.25 | -9.82 | 1.43 | 48.4
[11] | -9.49 | -9.51 | -7.79 | 0.54 | -4.11
[12] | -8.12 | -10.6 | -11.2 | 9.28 | -1.15
[13] | -9.44 | -9.06 | -12.7 | -6.66 | -1.81
[14] | -9.39 | -6.67 | -11.6 | -9.93 | -1.62

Conditions | drug sensitivity score
DERL-7 (IL-2 2.5 ng/mL) [16] | 7.96
IMC-1 (IL-2 20 ng/mL) [17] | 4.06
KAI3 (IL-2 2.5 ng/mL) [18] | 4.06
KHYG-1 (IL-2 2.5 ng/mL) [19] | 3.3
NK-92 (IL-2 2.5 ng/mL) [20] | 2.22
NK-YS (IL-2 2.5 ng/mL) [21] | 7.96
NKL (IL-2 2.5 ng/mL) [22] | 4.29
SNK-6 (IL-2 2.5 ng/mL) [23] | 9.92
YT (IL-2 2.5 ng/mL) [24] | 3.79
[15] | 2.71
[25] | 0
[26] | 0
[27] | 0.89
[28] | 0.89
